Results from ChEMBL document CHEMBL3351789, “Triazolopyridines as selective JAK1 inhibitors: from hit identification to GLPG0634” (J Med Chem, 2014).
Each block holds one compound with its values, some of them ahead of it. The source made the active and inactive calls. The calls are words filed in the database; no cut-off is given here.

Experiments:
[1] = tested on: Rattus norvegicus; assay: Antiinflammatory activity in rat collagen-induced arthritis model assessed as reduction in clinical score at 0.3 mg/kg, po measured up to day 15; format: functional, organism-based; design: dose 0.3 mg/kg
[2] = Cmax in dog at 5 mg/kg, po; format: ADME, organism-based, Canis lupus familiaris; design: dose 5 mg/kg, route oral; settings: in vivo
[3] = Tmax in dog at 5 mg/kg, po; format: ADME, organism-based, Canis lupus familiaris; design: dose 5 mg/kg, route oral; settings: in vivo
[4] = Volume of distribution at steady state in dog at 1 mg/kg, iv; format: ADME, organism-based, Canis lupus familiaris; design: dose 1 mg/kg, route intravenous; settings: in vivo, read-out: Vdss
[5] = Oral bioavailability in dog at 1 mg/kg, iv and 5 mg/kg; format: ADME, organism-based, Canis lupus familiaris; settings: in vivo
[6] = Metabolic stability in rat liver microsomes assessed as compound remaining after 60 mins; format: ADME; settings: read-out: Stability
[7] = tested on: Rattus norvegicus; assay: Antiinflammatory activity in po dosed rat collagen-induced arthritis model assessed as reduction in clinical score measured up to day 15; format: functional, organism-based
[8] = Half life in dog hepatocytes; format: ADME, cell-based, Canis lupus familiaris, Hepatocyte
[9] = AUC (0 to infinity) in dog at 5 mg/kg, po; format: ADME, organism-based, Canis lupus familiaris; design: dose 5 mg/kg, route oral, time infinity; settings: plasma
[10] = Plasma protein binding in dog; format: ADME, cell-free, Canis lupus familiaris; settings: read-out: PPB (converted)
[11] = Permeability across apical to basolateral side in human Caco2 cells; format: ADME, cell-based; settings: caco-2
[12] = Half life in rat at 1 mg/kg, iv; format: ADME, organism-based; design: dose 1 mg/kg, route intravenous; settings: in vivo
[13] = Half life in dog at 5 mg/kg, po; format: ADME, organism-based, Canis lupus familiaris; design: dose 5 mg/kg, route oral; settings: in vivo
[14] = target: Cytochrome P450 1A2 (Homo sapiens, UniProt P05177); assay: Inhibition of CYP1A2 (unknown origin); format: ADME
[15] = target: Cytochrome P450 2C19 (Homo sapiens, UniProt P33261); assay: Inhibition of CYP2C19 (unknown origin); format: ADME
[16] = Kinetic solubility of the compound at pH 7.4; settings: buffer
[17] = Half life in rat at 5 mg/kg, po; format: ADME, organism-based; design: dose 5 mg/kg, route oral; settings: in vivo
[18] = AUC (0 to infinity) in rat at 5 mg/kg, po; format: ADME, organism-based; design: time infinity, dose 5 mg/kg, route oral; settings: plasma
[19] = Metabolic stability in human liver microsomes assessed as compound remaining after 60 mins; format: ADME; settings: read-out: Stability
[20] = Half life in rat hepatocytes; format: ADME, cell-based, Hepatocyte
[21] = tested on: Rattus norvegicus; assay: Antiinflammatory activity in rat collagen-induced arthritis model assessed as reduction in clinical score at 0.1 mg/kg, po measured up to day 15; format: functional, organism-based; design: dose 0.1 mg/kg
[22] = Metabolic stability in dog liver microsomes assessed as compound remaining after 60 mins; format: ADME, Canis lupus familiaris; settings: read-out: Stability
[23] = target: Jak1 protein (Rattus norvegicus, UniProt Q5FVF5); assay: Inhibition of rat JAK1
[24] = Plasma protein binding in rat
[25] = AUC (0 to infinity) in dog at 1 mg/kg, iv; format: ADME, organism-based, Canis lupus familiaris; design: time infinity, dose 1 mg/kg, route intravenous; settings: plasma
[26] = Tmax in rat at 5 mg/kg, po; format: ADME, organism-based; design: dose 5 mg/kg, route oral; settings: in vivo
[27] = Thermodynamic solubility in aqueous buffer solution at pH 7.4; format: physicochemical
[28] = Cmax in rat at 5 mg/kg, po; format: ADME, organism-based; design: dose 5 mg/kg, route oral; settings: in vivo
[29] = AUC (0 to infinity) in rat at 1 mg/kg, iv; format: ADME, organism-based; design: time infinity, dose 1 mg/kg, route intravenous; settings: plasma
[30] = Thermodynamic solubility in aqueous buffer solution at pH 3; format: physicochemical
[31] = Plasma protein binding in human; format: ADME, cell-free; settings: read-out: PPB (converted)
[32] = Clearance in dog at 1 mg/kg, iv; format: ADME, organism-based, Canis lupus familiaris; design: dose 1 mg/kg, route intravenous; settings: in vivo
[33] = Cmax in dog at 1 mg/kg, iv; format: ADME, organism-based, Canis lupus familiaris; design: dose 1 mg/kg, route intravenous; settings: in vivo
[34] = target: Cytochrome P450 2D6 (Homo sapiens, UniProt P10635); assay: Inhibition of CYP2D6 (unknown origin); format: ADME
[35] = target: Cytochrome P450 2C9 (Homo sapiens, UniProt P11712); assay: Inhibition of CYP2C9 (unknown origin); format: ADME
[36] = Half life in human hepatocytes; format: ADME, cell-based, Hepatocyte
[37] = Half life in dog at 1 mg/kg, iv; format: ADME, organism-based, Canis lupus familiaris; design: dose 1 mg/kg, route intravenous; settings: in vivo
[38] = target: MAP kinase-activated protein kinase 5 (Homo sapiens, UniProt Q8IW41); assay: Inhibition of MAPKAPK5 (unknown origin)
[39] = target: Glycogen synthase kinase-3 beta (Homo sapiens, UniProt P49841); assay: Inhibition of GSK3beta (unknown origin)
[40] = target: Cyclin-dependent kinase 2 (Homo sapiens, UniProt P24941); assay: Inhibition of CDK2 (unknown origin)
[41] = target: Non-receptor tyrosine-protein kinase TYK2 (Homo sapiens, UniProt P29597); assay: Inhibition of human recombinant TYK2
[42] = target: Inhibitor of nuclear factor kappa-B kinase subunit beta (Homo sapiens, UniProt O14920); assay: Inhibition of IKKbeta (unknown origin)
[43] = organism: Homo sapiens; assay: Selectivity index, ratio of IC50 for human recombinant JAK3 to IC50 for human recombinant JAK1
[44] = target: Mitogen-activated protein kinase kinase kinase 7 (Homo sapiens, UniProt O43318); assay: Inhibition of TAK1 (unknown origin)
[45] = target: T1, Tyrosine-protein kinase JAK2 (Homo sapiens, UniProt O60674); assay: Inhibition of human recombinant JAK2
[46] = organism: Homo sapiens; assay: Selectivity index, ratio of IC50 for human recombinant TYK2 to IC50 for human recombinant JAK1
[47] = organism: Homo sapiens; assay: Selectivity index, ratio of IC50 for human recombinant JAK2 to IC50 for human recombinant JAK1
[48] = target: Tyrosine-protein kinase JAK3 (Homo sapiens, UniProt P52333); assay: Inhibition of human recombinant JAK3
[49] = target: Receptor-interacting serine/threonine-protein kinase 2 (Homo sapiens, UniProt O43353); assay: Inhibition of RIPK2 (unknown origin)
[50] = target: Tyrosine-protein kinase Lck (Homo sapiens, UniProt P06239); assay: Inhibition of LCK (unknown origin)
[51] = target: Tyrosine-protein kinase JAK1 (Homo sapiens, UniProt P23458); assay: Inhibition of human recombinant JAK1; settings: read-out: IC50
[52] = target: Protein-tyrosine kinase 2-beta (Homo sapiens, UniProt Q14289); assay: Inhibition of PYK2 (unknown origin)
[53] = target: Tyrosine-protein kinase SYK (Homo sapiens, UniProt P43405); assay: Inhibition of SYK (unknown origin)
[54] = target: Fibroblast growth factor receptor 3 (Homo sapiens, UniProt P22607); assay: Inhibition of FGFR3 (unknown origin)
[55] = target: Serine/threonine-protein kinase TBK1 (Homo sapiens, UniProt Q9UHD2); assay: Inhibition of TBK1 (unknown origin)
[56] = target: Mitogen-activated protein kinase 14 (Homo sapiens, UniProt Q16539); assay: Inhibition of p38alpha (unknown origin)
[57] = Inhibition of PKA (unknown origin); design: species or system Homo sapiens
[58] = target: Rho-associated protein kinase 1 (Homo sapiens, UniProt Q13464); assay: Inhibition of ROCK1 (unknown origin)
[59] = Oral bioavailability in rat at 5 mg/kg; format: ADME, organism-based; settings: in vivo
[60] = target: T1, Tyrosine-protein kinase JAK2; assay: Inhibition of JAK2 in human whole blood assessed as inhibition of GM-CSF-induced pSTAT5
[61] = Bioavailability in rat at 1 mg/kg, iv; format: ADME, organism-based; settings: in vivo
[62] = Clearance in rat at 1 mg/kg, iv; format: ADME, organism-based; design: dose 1 mg/kg, route intravenous; settings: in vivo

T1 sequence (O60674 whole entry): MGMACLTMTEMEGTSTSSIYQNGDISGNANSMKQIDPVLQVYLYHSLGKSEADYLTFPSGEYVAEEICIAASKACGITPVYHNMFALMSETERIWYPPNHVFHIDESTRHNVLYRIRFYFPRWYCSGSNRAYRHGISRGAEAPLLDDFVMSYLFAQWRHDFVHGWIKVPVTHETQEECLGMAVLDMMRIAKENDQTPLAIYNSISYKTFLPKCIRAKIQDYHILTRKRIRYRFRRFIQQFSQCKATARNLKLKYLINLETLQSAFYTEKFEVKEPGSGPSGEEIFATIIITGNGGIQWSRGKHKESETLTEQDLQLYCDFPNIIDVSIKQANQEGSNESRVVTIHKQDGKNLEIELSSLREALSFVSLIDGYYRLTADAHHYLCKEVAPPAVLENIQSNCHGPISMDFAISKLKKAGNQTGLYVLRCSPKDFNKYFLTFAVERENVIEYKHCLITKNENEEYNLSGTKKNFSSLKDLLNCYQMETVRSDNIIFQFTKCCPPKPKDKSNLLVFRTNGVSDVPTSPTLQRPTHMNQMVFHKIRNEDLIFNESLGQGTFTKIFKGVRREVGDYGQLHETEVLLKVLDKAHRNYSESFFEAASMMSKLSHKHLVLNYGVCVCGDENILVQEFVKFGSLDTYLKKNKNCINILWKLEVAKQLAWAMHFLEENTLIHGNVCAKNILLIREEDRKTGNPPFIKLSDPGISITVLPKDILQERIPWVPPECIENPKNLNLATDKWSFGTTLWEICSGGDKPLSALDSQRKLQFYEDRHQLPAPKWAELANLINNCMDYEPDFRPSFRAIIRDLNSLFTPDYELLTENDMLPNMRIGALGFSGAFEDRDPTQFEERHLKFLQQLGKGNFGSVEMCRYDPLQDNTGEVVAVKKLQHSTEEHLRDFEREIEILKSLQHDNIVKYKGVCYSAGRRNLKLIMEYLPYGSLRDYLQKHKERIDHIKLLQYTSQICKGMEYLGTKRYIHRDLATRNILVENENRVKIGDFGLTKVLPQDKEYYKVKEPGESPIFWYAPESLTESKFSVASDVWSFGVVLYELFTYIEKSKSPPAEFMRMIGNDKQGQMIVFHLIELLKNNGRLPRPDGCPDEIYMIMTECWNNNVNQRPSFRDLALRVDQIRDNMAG
Rho-associated protein kinase 1, sequence (Q13464 whole entry): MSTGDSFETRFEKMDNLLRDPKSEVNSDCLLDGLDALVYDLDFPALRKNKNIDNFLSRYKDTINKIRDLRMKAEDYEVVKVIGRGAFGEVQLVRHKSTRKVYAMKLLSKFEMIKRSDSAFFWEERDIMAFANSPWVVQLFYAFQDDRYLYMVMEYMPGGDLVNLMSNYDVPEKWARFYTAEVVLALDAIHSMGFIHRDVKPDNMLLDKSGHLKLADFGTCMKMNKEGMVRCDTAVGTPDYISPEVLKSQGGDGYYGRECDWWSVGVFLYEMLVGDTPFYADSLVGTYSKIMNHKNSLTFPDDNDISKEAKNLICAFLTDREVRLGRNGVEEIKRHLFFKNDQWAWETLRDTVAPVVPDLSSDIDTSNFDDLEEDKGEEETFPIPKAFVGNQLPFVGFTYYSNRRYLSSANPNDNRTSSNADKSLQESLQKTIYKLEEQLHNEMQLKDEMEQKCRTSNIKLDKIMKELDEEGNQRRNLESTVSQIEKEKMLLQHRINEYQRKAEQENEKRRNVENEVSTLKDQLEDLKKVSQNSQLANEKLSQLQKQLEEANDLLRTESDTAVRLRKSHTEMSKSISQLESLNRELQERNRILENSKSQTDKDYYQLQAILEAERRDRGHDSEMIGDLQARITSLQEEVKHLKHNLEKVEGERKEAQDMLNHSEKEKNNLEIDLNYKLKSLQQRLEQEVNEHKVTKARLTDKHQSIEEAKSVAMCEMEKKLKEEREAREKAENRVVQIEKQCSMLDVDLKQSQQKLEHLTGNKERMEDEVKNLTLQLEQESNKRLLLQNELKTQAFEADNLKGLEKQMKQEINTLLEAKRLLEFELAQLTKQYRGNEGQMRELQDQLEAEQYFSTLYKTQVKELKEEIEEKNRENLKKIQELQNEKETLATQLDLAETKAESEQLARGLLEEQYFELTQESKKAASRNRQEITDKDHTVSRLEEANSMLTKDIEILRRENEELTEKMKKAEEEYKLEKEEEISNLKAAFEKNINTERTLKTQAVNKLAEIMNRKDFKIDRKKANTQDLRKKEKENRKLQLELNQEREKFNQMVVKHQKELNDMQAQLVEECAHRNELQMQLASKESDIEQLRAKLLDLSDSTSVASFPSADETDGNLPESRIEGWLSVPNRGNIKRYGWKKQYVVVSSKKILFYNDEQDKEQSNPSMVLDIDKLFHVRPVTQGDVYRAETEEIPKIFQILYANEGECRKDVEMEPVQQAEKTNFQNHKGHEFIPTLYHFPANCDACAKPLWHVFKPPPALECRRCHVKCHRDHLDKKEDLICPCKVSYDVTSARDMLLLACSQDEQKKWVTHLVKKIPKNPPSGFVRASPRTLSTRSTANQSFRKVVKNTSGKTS
Jak1 protein, sequence (Q5FVF5 whole entry): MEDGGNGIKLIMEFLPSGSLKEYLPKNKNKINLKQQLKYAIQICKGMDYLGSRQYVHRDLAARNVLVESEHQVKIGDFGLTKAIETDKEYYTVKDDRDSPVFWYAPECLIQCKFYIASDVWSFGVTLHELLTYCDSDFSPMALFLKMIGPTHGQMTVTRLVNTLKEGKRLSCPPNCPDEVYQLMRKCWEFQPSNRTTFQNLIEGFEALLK
Receptor-interacting serine/threonine-protein kinase 2, sequence (O43353 whole entry): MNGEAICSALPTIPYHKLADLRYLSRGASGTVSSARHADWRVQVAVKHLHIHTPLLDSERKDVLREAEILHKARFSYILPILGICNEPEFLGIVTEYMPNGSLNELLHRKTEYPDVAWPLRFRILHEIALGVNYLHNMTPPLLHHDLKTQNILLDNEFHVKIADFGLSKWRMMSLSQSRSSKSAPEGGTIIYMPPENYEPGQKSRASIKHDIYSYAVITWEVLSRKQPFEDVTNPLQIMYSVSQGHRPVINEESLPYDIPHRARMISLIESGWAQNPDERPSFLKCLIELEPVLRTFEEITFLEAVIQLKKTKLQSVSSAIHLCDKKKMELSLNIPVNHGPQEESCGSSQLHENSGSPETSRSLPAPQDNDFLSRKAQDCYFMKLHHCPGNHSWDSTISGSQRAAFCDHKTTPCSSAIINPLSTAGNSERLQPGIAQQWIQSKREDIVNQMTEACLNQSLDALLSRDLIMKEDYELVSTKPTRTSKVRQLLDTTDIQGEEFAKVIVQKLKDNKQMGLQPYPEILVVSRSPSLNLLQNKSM
Serine/threonine-protein kinase TBK1, sequence (Q9UHD2 whole entry): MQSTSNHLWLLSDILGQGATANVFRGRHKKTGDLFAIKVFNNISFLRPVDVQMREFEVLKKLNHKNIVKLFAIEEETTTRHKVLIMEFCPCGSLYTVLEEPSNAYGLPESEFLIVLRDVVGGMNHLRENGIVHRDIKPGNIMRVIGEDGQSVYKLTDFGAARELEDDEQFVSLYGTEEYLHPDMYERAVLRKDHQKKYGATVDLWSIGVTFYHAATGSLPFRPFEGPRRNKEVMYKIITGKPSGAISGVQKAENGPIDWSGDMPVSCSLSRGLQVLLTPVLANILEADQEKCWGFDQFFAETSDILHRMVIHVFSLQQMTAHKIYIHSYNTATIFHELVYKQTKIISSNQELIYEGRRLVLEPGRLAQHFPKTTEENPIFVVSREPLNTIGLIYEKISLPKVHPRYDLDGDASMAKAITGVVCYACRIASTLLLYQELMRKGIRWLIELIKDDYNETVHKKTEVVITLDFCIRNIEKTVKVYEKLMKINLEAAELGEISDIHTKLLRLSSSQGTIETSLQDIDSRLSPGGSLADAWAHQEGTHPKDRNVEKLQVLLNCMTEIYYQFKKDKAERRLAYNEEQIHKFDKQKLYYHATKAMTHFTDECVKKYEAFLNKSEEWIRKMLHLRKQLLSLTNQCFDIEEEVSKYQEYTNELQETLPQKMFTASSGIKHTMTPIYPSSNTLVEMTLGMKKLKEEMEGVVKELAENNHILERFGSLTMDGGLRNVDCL
Tyrosine-protein kinase JAK3, sequence (P52333 whole entry): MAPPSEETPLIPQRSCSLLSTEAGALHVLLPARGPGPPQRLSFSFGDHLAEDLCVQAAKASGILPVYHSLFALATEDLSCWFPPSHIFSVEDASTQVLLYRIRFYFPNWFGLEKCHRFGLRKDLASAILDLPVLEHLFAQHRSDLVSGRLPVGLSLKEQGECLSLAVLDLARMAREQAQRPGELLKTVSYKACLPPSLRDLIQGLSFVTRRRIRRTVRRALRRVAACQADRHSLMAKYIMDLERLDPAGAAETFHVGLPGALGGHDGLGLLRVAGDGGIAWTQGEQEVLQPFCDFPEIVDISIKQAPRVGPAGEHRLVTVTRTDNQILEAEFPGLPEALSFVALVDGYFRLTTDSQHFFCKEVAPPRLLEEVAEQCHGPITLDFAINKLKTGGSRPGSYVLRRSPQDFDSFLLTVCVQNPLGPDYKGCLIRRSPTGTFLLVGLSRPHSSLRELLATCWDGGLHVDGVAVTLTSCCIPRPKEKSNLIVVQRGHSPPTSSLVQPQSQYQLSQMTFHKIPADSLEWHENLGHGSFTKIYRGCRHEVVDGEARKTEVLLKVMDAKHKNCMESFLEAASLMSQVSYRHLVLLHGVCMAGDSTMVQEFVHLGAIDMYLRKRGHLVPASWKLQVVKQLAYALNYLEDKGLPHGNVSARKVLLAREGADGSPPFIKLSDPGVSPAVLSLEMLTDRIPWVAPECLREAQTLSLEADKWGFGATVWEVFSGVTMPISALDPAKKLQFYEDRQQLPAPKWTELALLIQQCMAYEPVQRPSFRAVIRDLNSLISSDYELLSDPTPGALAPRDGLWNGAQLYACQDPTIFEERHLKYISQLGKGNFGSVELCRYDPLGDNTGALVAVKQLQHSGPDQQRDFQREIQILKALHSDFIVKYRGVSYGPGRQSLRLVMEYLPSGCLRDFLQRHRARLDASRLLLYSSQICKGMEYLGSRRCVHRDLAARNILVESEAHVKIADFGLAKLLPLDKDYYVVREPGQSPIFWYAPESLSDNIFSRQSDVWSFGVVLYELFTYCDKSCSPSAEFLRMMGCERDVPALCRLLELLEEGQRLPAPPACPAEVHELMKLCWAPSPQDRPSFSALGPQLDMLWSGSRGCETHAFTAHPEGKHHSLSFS

- Cmax [2]: 1810 ng/mL
- Tmax [3]: 1.5 h
- Vd [4]: 1.7 L/kg
- bioavailability [5]: 67%
- remaining at 1 h [6]: 65%
- half-life [8]: 3.33 h
- AUC(0-inf) [9]: 13900 ng·h/mL
- fraction unbound [10]: 0.711
- permeability [11]: 3.5 ×10⁻⁶ cm/s
- half-life [12]: 1.6 h
- half-life [13]: 5.2 h
- IC50 [14]: > 70 µM
- IC50 [15]: > 70 µM
- solubility kinetic [16]: > 85 µg/mL
- half-life [17]: 3.9 h
- AUC(0-inf) [18]: 1680 ng·h/mL
- remaining at 1 h [19]: 87%
- half-life [20]: 3.33 h
- remaining at 1 h [22]: 45%
- IC50 [23]: 0.029 µM
- fraction unbound [24]: 0.525
- AUC(0-inf) [25]: 4100 ng·h/mL
- Tmax [26]: 2.2 h
- Therm solubility [27]: 40 µg/mL
- Cmax [28]: 310 ng/mL
- AUC(0-inf) [29]: 739 ng·h/mL
- Therm solubility [30]: 243 µg/mL
- fraction unbound [31]: 0.682
- clearance [32]: 4.17 mL/min/kg
- Cmax [33]: 1140 ng/mL
- IC50 [34]: > 70 µM
- IC50 [35]: > 70 µM
- half-life [36]: 3.33 h
- half-life [37]: 7.5 h
SMILES: O=C(Nc1nc2cccc(-c3ccc(CN4CCS(=O)(=O)CC4)cc3)n2n1)C1CC1 [FILGOTINIB]
- inhibition [1]: Active
- inhibition [7]: Dose-dependent effect
- inhibition [21]: Active

- IC50 [38]: > 10 µM
- IC50 [39]: 7.11 µM
- IC50 [40]: > 10 µM
- IC50 [41]: 0.519 µM
- IC50 [42]: 24.7 µM
- Ratio IC50 [43]: 7.5
- IC50 [44]: > 10 µM
- IC50 [45]: 0.138 µM
- Ratio IC50 [46]: 7.4
- Ratio IC50 [47]: 2
- IC50 [48]: 0.528 µM
- IC50 [49]: 51 µM
- IC50 [50]: 4.44 µM
- IC50 [51]: 0.07 µM
- IC50 [52]: 3.18 µM
- IC50 [53]: 2.27 µM
- IC50 [54]: > 5.74 µM
- IC50 [55]: > 4 µM
- IC50 [56]: > 10 µM
- IC50 [57]: 40 µM
- IC50 [58]: > 10 µM
SMILES: COc1ccc(-c2cccc3nc(NC(=O)C4CC4)nn23)cc1

- remaining at 1 h [6]: 38%
- half-life [12]: 0.74 h
- bioavailability [59]: 45%
- solubility kinetic [16]: > 38 µg/mL
- half-life [17]: 0.92 h
- AUC(0-inf) [18]: 1440 ng·h/mL
- IC50 [60]: > 30 µM
- fraction unbound [24]: 0.29
- Tmax [26]: 0.33 h
- AUC(0-inf) [29]: 470 ng·h/mL
- bioavailability [61]: 62%
- clearance [62]: 35.3 mL/min/kg
SMILES: O=C(Nc1nc2cccc(-c3ccc(CN4CCOCC4)cc3)n2n1)C1CC1
